Broadly, the Ki is the dissociation constant of the complex between target and ligand, obtained from inhibition or displacement.

Read-outs that look alike come from different tables or passages of the source. Residues, ends and D or L forms follow the SMILES beside them. *: point of attachment. Cbz = O=C(OCc1ccccc1)*

The target of one test is T1, human cathepsin B (Homo sapiens, UniProt P07858).
T1 construct: purchased Millipore Sigma; host or cells: human liver (so in the source)
Nature of the test: Kinetic assay of human cathepsin B inhibition (Z-FR-AMC peptidolysis). Type of test: biochemical. Particulars: after 30-min incubation; pH 5.5; read-out: Ki* hCatB.

In another test the target is SARS-CoV-2 3CL protease (Severe acute respiratory syndrome coronavirus 2, UniProt P0DTD1). Nature of the test: Kinetic assay of SARS-CoV-2 3CL-PR inhibition (FRET substrate). It counts as biochemical. Particulars: after 30-min incubation; pH 7.2; read-out: Ki* 3CLpro.
For test [1], the system named is SARS-CoV-2-infected Vero E6 cells. Nature of the test: Micro-neutralization assay, virus-induced cytopathic effect in Vero E6 cells. It counts as cell-based. (Protection from cytopathic effect is a common read-out in antiviral testing.)
Test [2] has as its system SARS-CoV-2-infected A549/ACE2 cells. Nature of the test: microbe, parasite or virus in culture. It counts as cell-based.
The next test addresses cruzain. The note with it: pH 7.5; ref Li et al., 2021; cited from earlier work.
Test [3] deals with T2, human cathepsin L (Homo sapiens, UniProt P07711). Nature of the test: biochemical.
Description: (§1) Recombinant proteases were obtained from the following vendors: recombinant human cathepsin L (Millipore Sigma, Athens Research and Technology, Inc.), and human liver cathepsin B (Millipore Sigma), which were used without further purification. […] These samples were then diluted into the same buffer to concentrations of ∼100 nM, and these dilutions were stored at 4°C and used daily until depletion.
(§2) For assays of cathepsin L and B, inhibitors were evaluated in 0.25-ml reaction mixtures containing a buffer of sodium acetate (pH 5.5), 1 mM CHAPS, 1 mM Na2EDTA, and 5 mM DTT at 25°C. The fluorogenic substrate Cbz-Phe-Arg-7-amino-4-methyl-coumarin (Z-FR-AMC) was dissolved in 100% DMSO, as were all inhibitors and aliquots of both substrates, and inhibitors were added to the reaction mixtures with final concentrations of DMSO of 10% (v/v). […] Formation of the fluorescent product AMC was monitored over 30–60-min time courses for reaction mixtures in 96-well black microplates (Greiner). Rates of peptidolysis of the dipeptide-AMC substrate(s) were measured on either a SpectraMax M2 (Molecular Devices) or a Synergy Mx (Biotek, Wisnooki, VT) microplate reader which measured the formation of fluorescence using an excitation wavelength of λex = 360 nm, with detection of emission at λem = 460 nm at ≥8-s intervals. Control samples excluded substrate. The measured relative fluorescence units (RFUs) of generated AMC were converted to reaction rates of μM/s by use of a standard curve of known AMC concentrations obtained for both plate readers.
Test [4] concerns the target T2, human cathepsin L. The note with it: for Ki: read-out: Ki* hCatL, after 30-min incubation, pH 5.5, fit of vs/v0 to Eq. 5; for fold more potent for human cathepsin L than for cruzain (Ki*): hCatL vs cruzain.
Description: as §1, §2
For test [5], the system named is SARS-CoV-2-infected Vero E6 cells. Particulars: cited from earlier work.
The subject of test [6] is SARS-CoV-2-infected A549/ACE2 cells. Particulars: read-out: Anti-CoV-2 EC50 A549/ACE2 Cells, cited from earlier work.
[7] abbreviates: Severe acute respiratory syndrome coronavirus 2, Vero C1008, 72 h, prevention of CPE, 3 days, read-out: Anti-CoV-2 EC50 Vero E6 Cells.
Setting [8] is: Ki (initial EI complex), fit of vi/v0 vs. [I] to Eq. 4.
The mark [9] stands for this setting: Ki* hCatL, after 30-min incubation, pH 5.5, fit of vs/v0 to Eq. 5.
The mark [10] stands for this setting: Severe acute respiratory syndrome coronavirus 2, A549-ACE2, 96 h, prevention of CPE, 4 days, read-out: Anti-CoV-2 EC50 A549/ACE2 Cells.
Setting [11] is: Severe acute respiratory syndrome coronavirus 2, A549-ACE2, read-out: EC50 A549/ACE2 cells.
The mark [12] stands for this setting: Severe acute respiratory syndrome coronavirus 2, A549-ACE2, 96 h, read-out: Anti-CoV-2 EC50 A549/ACE2 Cells.
The mark [13] stands for this setting: previously reported, ref Li et al., 2021.

T2 sequence (P07711 114-333): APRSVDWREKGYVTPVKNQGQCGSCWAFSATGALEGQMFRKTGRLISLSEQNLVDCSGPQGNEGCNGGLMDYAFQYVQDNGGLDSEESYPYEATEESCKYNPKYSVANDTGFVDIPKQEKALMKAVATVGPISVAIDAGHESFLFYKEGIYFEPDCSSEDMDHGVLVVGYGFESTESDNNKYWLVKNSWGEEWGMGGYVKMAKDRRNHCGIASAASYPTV

Turning to `CN1CCN(C(=O)NC(Cc2ccccc2)C(=O)NC2Cc3ccccc3OC2O)CC1` (stereo not drawn) [Compound 8, NMe-Pip-Phe-o-Tyr-CHO], the Ki at human cathepsin B was 1270 ± 70 nM; at SARS-CoV-2 3CL protease it was > 10000 nM; at cruzain, 47 ± 2 nM; at human cathepsin L [3] (setting [8]) it was 22 ± 1 nM; on human cathepsin L [3] (setting [9]), 9 ± 0.4 nM. For the same compound, the EC50 in [1] (setting [7]) was determined as 9000 ± 2000 nM. Moreover, in test [2] (in words), the “anti-viral effect in infected A549/ACE2 cells” value is “no anti-viral effect”.
As for `CC(C)C(=O)OC1Oc2ccccc2CC1NC(=O)C(Cc1ccccc1)NC(=O)N1CCN(C)CC1` (stereo not drawn) [Compound 12], the EC50 in test [1] (setting [7]) worked out at 3750 nM; in [1] (prevention of CPE, 3 days, read-out: Anti-CoV-2 EC50 Vero E6 Cells), 4000 nM; in [2] (setting [10]) it was 310 nM; in [2] (setting [11]), 156 nM.
Take `COC(=O)c1ccc2c(c1)C[C@H](NC(=O)[C@H](Cc1ccccc1)NC(=O)OCc1ccccc1)C(O)O2` (stereo partly drawn) [Compound 7]: the inhibition constant Ki on human cathepsin B is 670 ± 30 nM; on SARS-CoV-2 3CL protease, > 10000 nM; at human cathepsin L [4], 4.8 ± 0.2 nM; on cruzain, 18 ± 0.5 nM. The EC50 in [1] (setting [7]) stood at 2500 nM. For the same compound, the “fold improved potency over 2” value at human cathepsin L [4] (cathepsin L) is 2.6 fold.
As to `O=C(N[C@@H](Cc1ccccc1)C(=O)N[C@H]1Cc2cc(Cl)ccc2OC1O)OCc1ccccc1` (stereo partly drawn) [Compound 5], the Ki on human cathepsin B was 1400 ± 100 nM; on SARS-CoV-2 3CL protease, > 10000 nM; on human cathepsin L [4], 12.1 ± 0.3 nM; on cruzain it was 70 ± 10 nM.
As to `COc1ccc2c(c1)C[C@H](NC(=O)[C@H](Cc1ccccc1)NC(=O)OCc1ccccc1)C(O)O2` (stereo partly drawn) [Compound 3], the Ki at human cathepsin B is 5500 nM; at SARS-CoV-2 3CL protease, > 10000 nM; on human cathepsin L [4], 17 ± 0.9 nM; on cruzain it was 350 ± 30 nM. Further, at human cathepsin L [4] (cathepsin L), the “fold increase in Ki* compared to 2” value is on record as 1.4 fold.
`CCC(=O)OC1Oc2ccccc2CC1NC(=O)C(Cc1ccccc1)NC(=O)N1CCN(C)CC1` (stereo not drawn) [Compound 11]: the EC50 in test [1] (setting [7]) turned out to be 2500 nM; in test [2] (setting [10]), 620 nM; in test [2] (setting [11]), 625 nM.
On to `O=C(N[C@@H](Cc1ccccc1)C(=O)N[C@H]1Cc2ccccc2OC1O)OCc1ccccc1` (stereo partly drawn) [Compound 2, Cbz-Phe-o-Tyr-CHO], for which the Ki is 4500 nM on human cathepsin B; > 10000 nM at SARS-CoV-2 3CL protease; 49 ± 2 nM at cruzain; 54 ± 6 nM on human cathepsin L [3] (setting [8]); 12.6 ± 0.4 nM on human cathepsin L [3] (setting [9]); ~200 nM at human cathepsin L [3] (k4Ki/k3 ∼ Ki*, calculated from the Eq. 3 parameters). Besides, the EC50 in test [1] (setting [7]) is 10000 ± 5000 nM; in [2] (setting [12]) it was > 20000 nM. On human cathepsin L [4] (conversion of EI* to EI), the “fold faster k4 than aldehyde 1” value was ~5 fold. The “fold more potent for human cathepsin L than for cruzain (Ki*)” value at human cathepsin L [4] turned out to be 3.9 fold. Moreover, on human cathepsin L [4] (intercept of kobs vs. [I], fit to Eq. 3), the “k4 (reversion of EI* to EI)” value was found to be 0.0016 ± 0.0002 s⁻¹. Further, at human cathepsin L [4] (relative to aldehyde 1), the “fold less potent inhibitor of cathepsin L than 1 (Ki*)” value was found to be 100 fold.
Consider `O=C[C@H](Cc1ccccc1)NC(=O)[C@H](Cc1ccccc1)NC(=O)OCc1ccccc1` [Compound 1, Cbz-Phe-Phe-CHO] (Cbz-Phe-Phe-aldehyde), for which the Ki is > 10000 nM on SARS-CoV-2 3CL protease, 0.44 ± 0.02 nM on cruzain, 0.18 ± 0.22 nM on human cathepsin L [3] (setting [8]) and 0.14 ± 0.01 nM at human cathepsin L [3] (setting [9]). For the same compound, the EC50 in [1] (setting [7]) is 470 nM; in [1] (Severe acute respiratory syndrome coronavirus 2, Vero C1008, repeat of the experiment with a different sample of 1, read-out: Anti-CoV-2 EC50 Vero E6 Cells), 7500 nM; in test [2] (setting [12]), > 20000 nM. Moreover, on human cathepsin L [4], the “fold more potent for human cathepsin L than for cruzain (Ki*)” value was determined as 3 fold.
`CN1CCN(C(=O)N[C@@H](Cc2ccccc2)C(=O)N[C@H](/C=C/S(=O)(=O)c2ccccc2)CCc2ccccc2)CC1` [Compound K777]: the EC50 in [1] (Severe acute respiratory syndrome coronavirus 2, Vero C1008, 72 h, read-out: Anti-CoV-2 EC50 Vero E6 Cells) was 150 nM; in test [1] (Severe acute respiratory syndrome coronavirus 2, Vero C1008, read-out: EC50 Vero E6 cells), 156 nM; in [5] (previously found, ref Mellott et al., 2021, read-out: EC50 Vero E6 cells) it was 625 nM; in test [5] (ref Mellott et al. (2021), read-out: Anti-CoV-2 EC50 Vero E6 Cells), 620 nM; in test [6] (ref Mellott et al. (2021)), < 78 nM.
On to `CC(C)[C@H](NC(=O)OCc1ccccc1)C(=O)N[C@@H](CC1CCCCC1)C(=O)N[C@H]1Cc2cccnc2OC1O` (stereo partly drawn) [Compound 9], for which the Ki at SARS-CoV-2 3CL protease came to 9 ± 2 nM; on human cathepsin L [3] (setting [9]), 22 ± 4 nM. Also, in test [5] (setting [13]), the “effect in SARS-CoV-2-infected Vero E6 cells” value is “no effect”. For the same compound, the EC50 in test [6] (setting [13]) is 3750 nM.
For `CC(C)(C)[C@H](NC(=O)C(F)(F)F)C(=O)N1C[C@H]2[C@@H]([C@H]1C(=O)N[C@H](C#N)C[C@@H]1CCNC1=O)C2(C)C` [PF-07321332, reference compound], the EC50 in test [1] (setting [7]) was > 20000 nM; in test [2] (setting [12]) it was 470 nM; in [5] (ref Owen et al. (2021), read-out: Anti-CoV-2 EC50 Vero E6 Cells), 74 nM; in [6] (ref Owen et al. (2021)) it was 77 nM.
For `CC(=O)OC1Oc2ccccc2CC1NC(=O)C(Cc1ccccc1)NC(=O)N1CCN(C)CC1` (stereo not drawn) [Compound 10], the EC50 was determined as 2500 nM in [1] (setting [7]), 310 nM in [2] (setting [10]) and 312 nM in test [2] (setting [11]).
Consider `O=C(N[C@@H](Cc1ccccc1)C(=O)N[C@H]1Cc2cc(F)ccc2OC1O)OCc1ccccc1` (stereo partly drawn) [Compound 6], for which the Ki at human cathepsin B is 2300 nM; on SARS-CoV-2 3CL protease, > 10000 nM; on human cathepsin L [4] it was 10.3 ± 0.5 nM; at cruzain, 48 ± 2 nM. Moreover, the EC50 in test [1] (setting [7]) is 4000 nM.
As to `Cc1ccc2c(c1)C[C@H](NC(=O)[C@H](Cc1ccccc1)NC(=O)OCc1ccccc1)C(O)O2` (stereo partly drawn) [Compound 4], the Ki on human cathepsin B was 6100 nM; at SARS-CoV-2 3CL protease it was > 10000 nM; on human cathepsin L [4] it was 26 ± 0.9 nM; on cruzain, 103 ± 5 nM. Further, the “fold increase in Ki* compared to 2” value on human cathepsin L [4] (cathepsin L) is recorded as 2 fold.

(Values after publication PMC9291521 (Frontiers in Chemistry, 2022).)
